Experimental data reported in the CheMixHub viscosity set.

Assay: xn = mol fraction of the nth substance listed

CNC=O + CCC(=O)O
viscosity [mPa·s], 100 kPa
Conditions	x1 = 0.1115	x1 = 0.1858	x1 = 0.2665	x1 = 0.3545	x1 = 0.4849	x1 = 0.5942	x1 = 0.6734	x1 = 0.7583	x1 = 0.8978
303.15 K	1.025	1.069	1.116	1.169	1.248	1.315	1.365	1.42	1.514
308.15 K	0.9555	0.9958	1.039	1.087	1.159	1.22	1.265	1.315	1.399
313.15 K	0.8989	0.9358	0.9757	1.019	1.083	1.138	1.179	1.223	1.298
318.15 K	0.8503	0.8846	0.9214	0.9605	1.019	1.068	1.104	1.143	1.209

O=C(OCc1ccccc1)c1ccccc1 + CCOC(C)=O
298.15 K, 101 kPa
Conditions	viscosity [mPa·s]
x2 = 0.0784	7.003
x2 = 0.1426	5.938
x2 = 0.2347	4.711
x2 = 0.3002	3.881
x2 = 0.4001	3.047
x2 = 0.5	2.299
x2 = 0.5863	1.789
x2 = 0.6973	1.275
x2 = 0.799	0.9116
x2 = 0.898	0.6406

CCCCCCBr + ClC(Cl)(Cl)Cl
101 kPa
Conditions	viscosity [mPa·s]
298.15 K, x1 = 0.1135	0.8881
298.15 K, x1 = 0.1518	0.8858
298.15 K, x1 = 0.1823	0.8835
298.15 K, x1 = 0.2319	0.8822
298.15 K, x1 = 0.3098	0.8844
298.15 K, x1 = 0.474	0.8943
298.15 K, x1 = 0.6449	0.9113
303.45 K, x1 = 0.0686	0.8329
303.45 K, x1 = 0.0894	0.8281
303.45 K, x1 = 0.1554	0.8277
303.45 K, x1 = 0.1952	0.8288
303.45 K, x1 = 0.2666	0.8328
303.45 K, x1 = 0.424	0.8436
303.45 K, x1 = 0.5955	0.8555
303.45 K, x1 = 0.7896	0.8708
313.35 K, x1 = 0.0691	0.7236
313.35 K, x1 = 0.0909	0.723
313.35 K, x1 = 0.1303	0.7251
313.35 K, x1 = 0.1568	0.7252
313.35 K, x1 = 0.1996	0.7259
313.35 K, x1 = 0.2736	0.7309
313.35 K, x1 = 0.5015	0.7462
313.35 K, x1 = 0.7896	0.7649

CNC=O + Cc1ccccc1N
viscosity [mPa·s], 100 kPa
Conditions	x1 = 0.0896	x1 = 0.1601	x1 = 0.2501	x1 = 0.3425	x1 = 0.4328	x1 = 0.5424	x1 = 0.6554	x1 = 0.7342	x1 = 0.8414
303.15 K	3.114	3	2.853	2.702	2.553	2.369	2.179	2.045	1.86
308.15 K	2.708	2.617	2.498	2.375	2.254	2.105	1.95	1.84	1.689
313.15 K	2.393	2.317	2.219	2.117	2.016	1.892	1.763	1.671	1.544
318.15 K	2.081	2.022	1.946	1.865	1.786	1.688	1.585	1.513	1.411

CNC=O + CC(O)CO
viscosity [mPa·s], 101 kPa
Conditions	x1 = 0.0968	x1 = 0.1216	x1 = 0.2366	x1 = 0.347	x1 = 0.4526	x1 = 0.5534	x1 = 0.6498	x1 = 0.7432	x1 = 0.832	x1 = 0.917
293.15 K	39.02	36.25	22.68	14.7	9.934	6.941	5.057	3.792	2.933	2.349
303.15 K	22.78	21.44	14.24	9.752	6.915	5.053	3.822	2.965	2.363	1.935
313.15 K	14.24	13.56	9.479	6.811	5.034	3.819	2.986	2.381	1.949	1.631
323.15 K	9.382	9.048	6.609	4.951	3.793	2.97	2.388	1.957	1.635	1.397

CC(C)OCCO + CN1CCCC1=O
298.15 K, 101 kPa
Conditions	viscosity [mPa·s]
x1 = 0.004	1.691
x1 = 0.0105	1.702
x1 = 0.0362	1.729
x1 = 0.0624	1.753
x1 = 0.088	1.764
x1 = 0.1136	1.779
x1 = 0.1577	1.814
x1 = 0.2017	1.843
x1 = 0.2462	1.882
x1 = 0.3116	1.929
x1 = 0.3451	1.955
x1 = 0.3748	1.969
x1 = 0.4055	1.989
x1 = 0.4494	2.011
x1 = 0.5127	2.045
x1 = 0.5735	2.073
x1 = 0.6423	2.096
x1 = 0.7229	2.118
x1 = 0.7639	2.134
x1 = 0.8354	2.127
x1 = 0.9185	2.12
x1 = 0.9736	2.109
x2 = 0.0086	2.107

CCCCCCCCN(CCCCCCCC)CCCCCCCC + CCCCCCO
Conditions	viscosity [mPa·s]
298 K, 101.3 kPa, x1 = 0.00638	4.722

CC(C)OCCO + O=C1CCCN1
298.15 K, 101 kPa
Conditions	viscosity [mPa·s]
x1 = 0.0071	13.9
x1 = 0.0159	13.59
x1 = 0.0316	12.93
x1 = 0.0611	11.92
x1 = 0.1046	10.57
x1 = 0.1603	9.092
x1 = 0.2294	7.709
x1 = 0.2699	7.051
x1 = 0.3267	6.264
x1 = 0.3725	5.709
x1 = 0.4121	5.308
x1 = 0.4371	5.073
x1 = 0.4623	4.846
x1 = 0.5125	4.439
x1 = 0.5675	4.067
x1 = 0.6092	3.792
x1 = 0.6833	3.388
x1 = 0.7418	3.111
x1 = 0.7986	2.871
x1 = 0.8498	2.672
x1 = 0.888	2.528
x1 = 0.9155	2.412
x1 = 0.943	2.304
x1 = 0.9583	2.252
x1 = 0.9786	2.193
